The structures appear in SMILES notation.

The IC50 is the midpoint of a concentration-inhibition curve.

Chain of recombinant sEH (soluble epoxide hydrolase, EPHX2) (P34913 whole entry): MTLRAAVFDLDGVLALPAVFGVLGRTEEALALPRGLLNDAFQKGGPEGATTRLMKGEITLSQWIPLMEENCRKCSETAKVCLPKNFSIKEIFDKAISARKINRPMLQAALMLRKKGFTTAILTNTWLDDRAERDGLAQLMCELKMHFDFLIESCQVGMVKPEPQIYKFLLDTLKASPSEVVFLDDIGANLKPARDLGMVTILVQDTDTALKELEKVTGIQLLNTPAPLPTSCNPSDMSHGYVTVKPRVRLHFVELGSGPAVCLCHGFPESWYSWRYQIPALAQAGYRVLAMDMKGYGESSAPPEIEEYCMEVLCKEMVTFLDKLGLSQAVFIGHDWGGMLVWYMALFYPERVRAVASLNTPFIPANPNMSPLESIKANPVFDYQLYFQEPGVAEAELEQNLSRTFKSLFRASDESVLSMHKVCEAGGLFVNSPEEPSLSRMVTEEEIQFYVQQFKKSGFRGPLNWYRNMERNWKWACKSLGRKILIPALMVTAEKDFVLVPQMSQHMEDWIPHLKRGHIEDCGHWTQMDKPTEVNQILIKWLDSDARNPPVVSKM

The target in this experiment is recombinant sEH (soluble epoxide hydrolase, EPHX2) (Homo sapiens (Human), UniProt P34913). Description: biochemical fluorometric sEH inhibition assay with Phome substrate. As to conditions: recombinant sEH purified from Sf9 insect cells, 2 nM sEH, 5 μM Phome, 60 minutes at 30° C. As for the experimental part:
Compounds were tested in a biochemical screening assay using recombinant sEH purified from Sf9 insect cells and an artificial substrate, (3-phenyl-oxiranyl)-acetic acid cyano-(6-methoxy-naphtalen-2-yl)-methyl ester, Phome. The biochemical assay was performed in analogy to a fluorometric described in the literature (P. D. Jones et al., Anal. Biochem. 2005, 343, 66-75). The assay principle bases on the sEH-catalyzed hydrolysis of an artificial α-cyano-ester substrate. O-deacetylation liberates a cyanohydrin intermediate that rapidly decomposes to the highly fluorescent 6-methoxy-2-naphtaldehyde. To discriminate sample autofluorescence, the assay was carried out as a kinetic measurement with two time points. The first measurement is performed immediately before addition of the substrate and the […] measurement is done after completion of the assay. The assay format is either in 96- or in 384-well format.
Details of the assay using a 96-well plate format are described below. 40 μl recombinant sEH enzyme and 5 μl test compound are pre-incubated for 15 minutes at 30° C. Following pre-incubation, the reaction is started by addition of 5 μl Phome. The assay mixture containing 2 nM final sEH concentration, test compound ranging in a concentration from 0.0001-10 μM and 5 μM Phome is incubated for 60 minutes at 30° C.
Fluorescence is measured with any suitable detector for instance a TECAN Safire or Tecan Ultra at […]. % inhibition of recombinant sEH activity is used for calculation of corresponding IC50 values as illustrated and described in the examples.
The NCBI gene bank reference sequence with the accession number NM_001979 for EPHX2/sEH was applied for recombinant protein production:
The following commercially available materials have been used: • Incubation reagent: 25 mM Hepes (Sigma-Aldrich, Cat. No H-3375), 0.01% bovine albumin (Sigma-Aldrich Cat. No PA9205) • Substrate: 3-Phenyl-oxiranyl)-acetic acid cyano-(6-methoxy-naphtalen-2-yl)-methyl ester, Phome (Biozol Cat. No 10003134) • Microtiter plates: 96-well plates (Greiner Cat. No 655180; Costar Cat. No 3915)
For `COc1cc(CNC(=O)c2ccc(CN3CCN(C(=O)C4CC(=O)OC4(C)C)CC3)s2)ccn1` (stereo not shown) [Example 40], the IC50 stood at 2.75 nM. Then `Cc1cc(=O)oc(C)c1C(=O)N1CCN(Cc2ccc(C(=O)NCC3CCc4ccccc43)s2)CC1` (stereo not shown) [Example 23], with 2.75 nM. With `Cc1cc(=O)oc(C)c1C(=O)N1CCN(Cc2ncc(C(=O)NCc3ccc(Cl)cc3Cl)s2)CC1` [Example 162], the IC50 came to 12.2 nM. With `O=C(NCc1ccc(Cl)cc1Cl)c1cnc(CN2CCN(C(=O)C3COCCO3)CC2)s1` (stereo not shown) [Example 170], the IC50 worked out at 18 nM. With `O=C(NCc1ccccc1OC(F)(F)F)c1ccc(CN2CCN(C(=O)c3ncccc3O)CC2)s1` [Example 82] the figure was 2.37 nM. On to `NC1(C(=O)N2CCN(Cc3ccc(C(=O)NCc4ccccc4OC(F)(F)F)s3)CC2)CCC1` [Example 143], for which the IC50 stood at 1.85 nM. Turning to `O=C(NCc1ccc(Cl)cc1Cl)c1ccc(CN2CCN(C(=O)c3cccnc3)CC2)s1` [Example 89], the IC50 came to 1.4 nM. With `O=C(NCc1ccccc1C(F)(F)F)c1ccc(CN2CCN(C(=O)c3ccccn3)CC2)s1` [Example 16] the figure was 0.534 nM; with `O=C(NCc1ccc(Cl)cc1Cl)c1ccc(CN2CCN(C(=O)[C@@H]3C[C@H]3c3ccccc3)CC2)s1` [Example 153], 2.56 nM. Then `CC(C)[C@@H](O)C(=O)N1CCN(Cc2ncc(C(=O)NCc3ccc(Cl)cc3Cl)s2)CC1` [Example 198], with 13.3 nM. Then `COc1ccc(CNC(=O)c2ccc(CN3CCn4cnnc4C3)s2)c(OC(F)(F)F)c1` [Example 104], with 2.33 nM; and `Cc1cc(=O)oc(C)c1C(=O)N1CCN(Cc2ccc(C(=O)NCc3ccc(Cl)cc3F)s2)CC1` [Example 60, 5-[4-(2,4-Dimethyl-6-oxo-6H-pyran-3-carbonyl)-piperazin-1-ylmethyl]-thiophene-2-carboxylic acid 4-chloro-2-fluoro-benzylamide], with 1.1 nM; and `O=C(NCc1ccc(Cl)cc1Cl)c1ccc(CN2CCN(C(=O)c3nccc4ccccc34)CC2)s1` [Example 65], with 1.19 nM. On to `Cc1noc(C)c1C(=O)N1CCN(Cc2ccc(C(=O)NCc3ccccc3OC(F)(F)F)s2)CC1` [Example 122], for which the IC50 stood at 1.74 nM. As to `O=C(NCc1ccc(Cl)cc1Cl)c1cnc(CN2CCN(C(=O)C3(O)CC3)CC2)s1` [Example 201], the IC50 was found to be 6.37 nM.

As to `O=C(NCc1ccc(Cl)cc1Cl)c1cnc(CN2CCN(C(=O)c3ccccn3)CC2)s1` [Example 186], the IC50 turned out to be 33.7 nM. Regarding `Cn1nc(C(C)(C)C)cc1C(=O)N1CCN(Cc2ccc(C(=O)NCc3ccccc3C(F)(F)F)s2)CC1` [Example 25], the IC50 turned out to be 2.76 nM. For `COCCCC(=O)N1CCN(Cc2ncc(C(=O)NCc3ccc(Cl)cc3Cl)s2)CC1` [Example 166], the IC50 is 21.3 nM.

Regarding `Cc1ccc(C(=O)N2CCN(Cc3ccc(C(=O)NCc4ccc(Cl)cc4Cl)s3)CC2)s1` [Example 154], the IC50 was found to be 2.05 nM. As to `CN1CC(C(=O)N2CCN(Cc3ncc(C(=O)NCc4ccc(Cl)cc4Cl)s3)CC2)CC1=O` (stereo not shown) [Example 197], the IC50 was 49.5 nM. Regarding `Cc1cc(N2CCN(Cc3ccc(C(=O)NCc4ccc(Cl)cc4Cl)s3)CC2)cc(C)n1` [Example 120, 5-[4-(2,6-Dimethyl-pyridin-4-yl)-piperazin-1-ylmethyl]-thiophene-2-carboxylic acid 2,4-dichloro-benzylamide], the IC50 was 5.3 nM.

On to `Cc1cncc(N2CCN(Cc3ccc(C(=O)NCc4ccccc4OC(F)(F)F)s3)CC2)n1` [Example 39], for which the IC50 is 2.75 nM. On to `CNC(=O)c1cccnc1N1CCN(Cc2ccc(C(=O)NCc3ccc(Cl)cc3Cl)s2)CC1` [Example 14], for which the IC50 is 2.93 nM. For `CC[C@@H](O)C(=O)N1CCN(Cc2ncc(C(=O)NCc3ccc(Cl)cc3Cl)s2)CC1` [Example 179], the IC50 worked out at 24.1 nM. With `O=C(NCc1ccc(Cl)cc1Cl)c1cnc(CN2CCN(C(=O)C3CCO3)CC2)s1` (stereo not shown) [Example 208] the figure was 9.67 nM; with `Cc1cc(=O)oc(C)c1C(=O)N1CCN(Cc2ccc(C(=O)NCc3ccccc3C(F)(F)F)s2)CC1` [Example 36], 0.906 nM; with `O=C(NCc1ccccc1OC(F)(F)F)c1ccc(CN2CCN(C(=O)[C@@H]3CCC[C@@H]3O)CC2)s1` [Example 94], 1.5 nM. With `O=C(NCc1ccc(Cl)cc1Cl)c1cnc(CN2CCN(C(=O)CN3CCCC3=O)CC2)s1` [Example 168] the figure was 77.9 nM; with `CC(C)(O)C(=O)N1CCN(Cc2ncc(C(=O)NCc3ccc(Cl)cc3Cl)s2)CC1` [Example 172], 10.8 nM. On to `O=C(NCc1ccc(Cl)cc1Cl)c1ccc(CN2CCN(C(=O)COc3ccccc3)CC2)s1` [Example 42], for which the IC50 was found to be 2.7 nM. Then `O=C(NCc1ccc(Cl)cc1Cl)c1ccc(CN2CCN(C(=O)Cc3ccccc3Cl)CC2)s1` [Example 69], with 2.61 nM.

Regarding `CC1(C)SCN[C@H]1C(=O)N1CCN(Cc2ccc(C(=O)NCc3ccccc3OC(F)(F)F)s2)CC1` [Example 110], the IC50 is 2.16 nM. For `COc1ccc(CNC(=O)c2ccc(CN3CCN(c4ncccc4C)C(=O)C3)s2)c(OC(F)(F)F)c1` [Example 126], the IC50 came out at 1.75 nM. Consider `Cc1cc(C(=O)NCc2ccccc2OC(F)(F)F)sc1CN1CCN(C(=O)c2c(C)cc(=O)oc2C)CC1` [Example 148], for which the IC50 worked out at 1.87 nM. Then `O=C(NCc1ccc(Cl)cc1Cl)c1ccc(CN2CCN(C3CCC3)CC2)s1` [Example 27], with 0.803 nM; and `Cc1cccnc1N1CCN(Cc2ccc(C(=O)NCc3ccccc3OC(F)(F)F)s2)CC1=O` [Example 112], with 1.64 nM; and `O=C(NCc1ccc(Cl)cc1Cl)c1ccc(CN2CCN(C(=O)C3Cc4ccccc43)CC2)s1` (stereo not shown) [Example 70], with 2.62 nM. On to `O=C(NCc1ccccc1OC(F)(F)F)c1ccc(CN2CCN(C(=O)c3nc(F)ccc3F)CC2)s1` [Example 129], for which the IC50 was 1.73 nM. With `O=C(NCc1ccc(Cl)cc1Cl)c1cnc(CN2CCN(C(=O)CN3CCC(O)C3)CC2)s1` (stereo not shown) [Example 211] the figure was 90.9 nM; with `O=C(NCc1ccccc1OC(F)(F)F)c1ccc(CN2CCN(C3CCCC3)C(=O)C2)s1` [Example 38], 0.803 nM; with `O=C(NCc1ccc(Cl)cc1Cl)c1cnc(CN2CCN(C(=O)C3CCOC3)CC2)s1` (stereo not shown) [Example 183], 18.8 nM.

`COc1ccc(CNC(=O)c2ccc(CN3CCN(c4ccc(O)nn4)CC3)s2)c(OC(F)(F)F)c1` [Example 22]: the IC50 is 2.8 nM. Take `CC1(C)OC(=O)CC1C(=O)N1CCN(Cc2ncc(C(=O)NCc3ccc(Cl)cc3Cl)s2)CC1` (stereo not shown) [Example 161]: the IC50 is 6.11 nM.

For `O=C(NCc1ccc(Cl)cc1Cl)c1ccc(CN2CCN3C(=O)CCC3C2)s1` (stereo not shown) [Example 114], the IC50 is 1.67 nM. As for `COc1cccnc1C(=O)N1CCN(Cc2ccc(C(=O)NCc3ccccc3OC(F)(F)F)s2)CC1` [Example 97], the IC50 is 1.6 nM. Then `Cc1noc(C)c1C(=O)N1CCN(Cc2ccc(C(=O)NCc3ccc(Cl)cc3Cl)s2)CC1` [Example 2], with 0.502 nM; and `CC(C)(CO)C(=O)N1CCN(Cc2ncc(C(=O)NCc3ccc(Cl)cc3Cl)s2)CC1` [Example 176], with 13.4 nM. Then `CC[C@H](O)C(=O)N1CCN(Cc2ncc(C(=O)NCc3ccc(Cl)cc3Cl)s2)CC1` [Example 191], with 14 nM; and `O=C(NCc1ccc(Cl)cc1Cl)c1cnc(CN2CCN(C(=O)C3CCCO3)CC2)s1` (stereo not shown) [Example 182], with 18.4 nM; and `Cc1noc(C)c1C(=O)N1CCN(Cc2ccc(C(=O)NCc3ccccc3C(F)(F)F)s2)CC1` [Example 88], with 1.44 nM. `CC(O)C(=O)N1CCN(Cc2ncc(C(=O)NCc3ccc(Cl)cc3Cl)s2)CC1` (stereo not shown) [Example 189]: the IC50 came out at 28.9 nM. Then `CC(C(=O)N1CCN(Cc2ccc(C(=O)NCc3ccccc3OC(F)(F)F)s2)CC1)N(C)C` (stereo not shown) [Example 138], with 6.27 nM; and `O=C(NCc1ccccc1C(F)(F)F)c1ccc(CN2CCN(C(=O)c3ccc(F)cc3Cl)CC2)s1` [Example 64], with 1.25 nM.

On to `CC(C)[C@@H](O)C(=O)N1CCN(Cc2ccc(C(=O)NCc3ccccc3OC(F)(F)F)s2)CC1` [Example 101], for which the IC50 was found to be 2.28 nM.

On to `COCC(=O)N1CCN(Cc2ncc(C(=O)NCc3ccc(Cl)cc3Cl)s2)CC1` [Example 192], for which the IC50 stood at 35.3 nM. In the case of `COc1ccc(CNC(=O)c2ccc(CN3CCN(CC(F)(F)F)C(=O)C3)s2)c(OC(F)(F)F)c1` [Example 56], the IC50 is 1.01 nM. For the compound `O=C(NCc1ccccc1OC(F)(F)F)c1ccc(CN2CCN(C(=O)c3c[nH]cnc3=O)CC2)s1` [Example 107], the IC50 stood at 2.26 nM.

For the compound `CCn1nc(C)c(Br)c1C(=O)N1CCN(Cc2ccc(C(=O)NCCC(C)C)s2)CC1` [Example 99], the IC50 is 1.53 nM.

Values taken from US9776991B2, “Thienomethylpiperazine derivatives as inhibitors of soluble epoxide hydrolase” (SANOFI, priority 2013, dated 2017).
